# Measured values reported in US8106047B2, “Triazolophthalazines” (NYCOMED GmbH, priority 2005, dated 2012).
# “Also recorded” adds a separate entry of the source.
# Test system: HUVEC monolayers
# Experiment: Inhibition of macromolecule (HRP) permeability of thrombin-stimulated HUVEC monolayers
# Assay type: cell-based, human
# Details: 10 μM Motapizone (PDE3) and 1 μM RP73401 (PDE4) together, 1 U/ml thrombin
# Procedure: Method to Assess Inhibition of Macromolecule Permeability of HUVEC Monolayers
# The procedure to measure macromolecule permeability of endothelial cell monolayers followed the method described by Langeler & van Hinsbergh (1988) with modifications. Human umbilical vein endothelial cells were isolated from umbilical cords according to standard procedures (Jaffe et al. 1973) and cultured in endothelial cell basal medium (EBM) supplemented with 2% FCS, 0.5 ng/ml VEGF, 10 ng/ml bFGF, 5 ng/ml EGF, 20 ng/ml Long R3 IGF-1, 0.2 μg/ml hydrocortisone, 1 μg/ml ascorbic acid, 22.5 μg/ml heparin, 50 μg/ml gentamicin, 50 ng/ml amphotericin B (EGM2 purchased from Promocell GmbH, Heidelberg, Germany). At confluency, cells were trypsinized and replated at 73000 cells per well on 3 μm polycarbonate filter Transwell inserts (Costar GmbH, Bodenheim, Germany) precoated with 10 μg cm^2−1 Fibronectin (Sigma, Taufkirchen, Germany). HUVECs were cultured in EGM2 (100 μl in the upper wells and 600 μl in the lower wells) over four days prior the experiments and medium was changed every other day. At the day of the experiment culture medium was replaced by M199 with 1% human serum albumin. Endothelial cells were preincubated with cyclic nucleotide modifiers (the selective PDE3 inhibitor motapizone, the selective PDE4 inhibitor RP73401, the cGMP generators ANP or SNP and PDE2 inhibitors) for 15 min. HUVECs were then stimulated with Thrombin (1 U ml^−1) (Sigma, Taufkichen, Germany) and horsh radish peroxidase (5 μg/ml) (Sigma, Taufkirchen, Germany) as the macromolecule marker protein was added to the upper wells. Following 1 h incubation time Transwells were removed and the activity of horsh radish peroxidase that penetrated the endothelial cell monolayer was measured in the lower wells with the 3,3′,5,5′-tetramethylbenzidine liquid substrate system from Sigma (Taufkirchen, Germany).
# In parallel, compounds according to the invention can inhibit Thrombin-induced permeability of HUVEC monolayers for horsh radish peroxidase (HRP) as a macromolecule marker. […] The concentration-dependent inhibition of HRP permeability at different concentrations was assessed from the percent inhibition in the presence and absence of the PDE2 inhibitors and in the presence of 1 μM RP73401, 10 μM Motapizone and 100 nM ANP.
# Inhibition of SNP- or ANP-Induced Permeability of HUVEC Monolayers:
# HUVEC cells on 3 μm polycarbonate filters (Transwells) were preincubated with 1 μM RP73401 (to block PDE4) and 10 μM Motapizone (to block PDE3), 1 mM SNP or 100 nM ANP and test sample over 15 min and then stimulated with 1 U/ml thrombin. HRP passage into the lower wells was assessed after 60 min.
row,Structure (SMILES),Thrombin-induced increase of HRP permeability (hyperpermeability)
1,"COc1ccc(C(=O)Nc2c(Cl)cncc2Cl)cc1OC1CCCC1 [RP73401, reference compound]",completely abolished; also recorded: completely blocked
2,"CC1CC(=O)NN=C1c1cc(-n2ccnc2)cs1 (centres unmarked) [Motapizone, reference compound]",completely abolished; also recorded: completely blocked

# Same assay, conditions: Homo sapiens, 1 h; HUVEC on Transwells, 1 μM RP73401, 10 μM Motapizone, 1 mM SNP or 100 nM ANP, 1 U/ml thrombin, HRP passage after 60 min; read-out: Inhibition of SNP- or ANP-induced permeability, −log IC50 [mol/l] (converted)
row,Structure (SMILES),IC50 [nM]
1,"COc1ccc(-c2nnc3c4ccccc4c(Nc4cccc(NS(C)(=O)=O)c4)nn23)cc1 [Compound 19, N-{3-[3-(4-Methoxyphenyl)-[1,2,4]triazolo[3,4-a]phthalazin-6-ylamino]-phenyl}-methanesulfonamide]",0.501 to 126
2,"CN(C)S(=O)(=O)c1cccc(Nc2nn3c(-c4ccccc4C(F)(F)F)nnc3c3ccccc23)c1 [Compound 33, [3-(N,N-dimethylsulfamoyl)-phenyl]-[3-(2-trifluoromethyl-phenyl)-[1,2,4]triazolo[3,4-a]phthalazin-6-yl]-amine]",0.501 to 126
3,"COc1ccc(-c2nnc3c4ccccc4c(Nc4ccc(S(=O)(=O)Nc5ncccn5)cc4)nn23)cc1 [Compound 21, 4-[3-(4-Methoxyphenyl)-[1,2,4]triazolo[3,4-a]phthalazin-6-ylamino]-N-pyrimidin-2-yl-benzenesulfonamide]",0.501 to 126
4,"COc1ccc(-c2nnc3c4ccccc4c(Nc4ccc(S(=O)(=O)N(C)C)cc4)nn23)cc1 [Compound 7, [4-(N,N-dimethylsulfamoyl)-phenyl]-[3-(4-methoxy-phenyl)-[1,2,4]triazolo[3,4-a]phthalazin-6-yl]-amine]",0.501 to 126
5,"COc1ccc(-c2nnc3c4ccccc4c(Nc4cccc(S(=O)(=O)N(C)C)c4)nn23)cc1 [Compound 13, [3-(N,N-dimethylsulfamoyl)-phenyl]-[3-(4-methoxy-phenyl)-[1,2,4]triazolo[3,4-a]phthalazin-6-yl]-amine]",0.501 to 126
6,"CN(C)S(=O)(=O)c1cccc(Nc2nn3c(-c4ccccc4Br)nnc3c3ccccc23)c1 [Compound 27, [3-(N,N-dimethylsulfamoyl)-phenyl]-[3-(2-bromo-phenyl)-[1,2,4]triazolo[3,4-a]phthalazin-6-yl]-amine]",0.501 to 126

# Test system: not given
# Experiment: not given
# Details: not given
row,melting point [°C],Structure (SMILES)
1,304.9,"COc1ccc(-c2nnc3c4ccccc4c(Nc4cccc(NS(C)(=O)=O)c4)nn23)cc1 [Compound 19, N-{3-[3-(4-Methoxyphenyl)-[1,2,4]triazolo[3,4-a]phthalazin-6-ylamino]-phenyl}-methanesulfonamide]"
2,292 to 293,"COc1ccc(Cc2nnc3c4ccccc4c(Nc4cccc(-c5nn[nH]n5)c4)nn23)cc1 [Compound T8, [3-(4-Methoxy-benzyl)-[1,2,4]triazolo[3,4-a]phthalazin-6-yl]-[3-(2H-tetrazol-5-yl)-phenyl]-amine]"
3,281 to 284,"COc1ccc(-c2nnc3c4ccccc4c(Nc4ccc(-c5nn[nH]n5)cc4)nn23)cc1 [Compound T4, [3-(4-Methoxy-phenyl)-[1,2,4]triazolo[3,4-a]phthalazin-6-yl]-[4-(2H-tetrazol-5-yl)-phenyl]-amine]"
4,> 350,"COc1ccc(-c2nnc3c4ccccc4c(Nc4ccc(S(=O)(=O)Nc5ncccn5)cc4)nn23)cc1 [Compound 21, 4-[3-(4-Methoxyphenyl)-[1,2,4]triazolo[3,4-a]phthalazin-6-ylamino]-N-pyrimidin-2-yl-benzenesulfonamide]"
5,305 to 308,"COc1ccc(-c2nnc3c4ccccc4c(Nc4cccc(-c5nn[nH]n5)c4)nn23)cc1 [Compound T3, [3-(4-Methoxy-phenyl)-[1,2,4]triazolo[3,4-a]phthalazin-6-yl]-[3-(2H-tetrazol-5-yl)-phenyl]-amine]"
6,256 to 259,"COc1ccc(-c2nnc3c4ccccc4c(Nc4cccc(-c5nnn(C)n5)c4)nn23)cc1 [Compound T5, [3-(4-Methoxy-phenyl)-[1,2,4]triazolo[3,4-a]phthalazin-6-yl]-[3-(2-methyl-2H-tetrazol-5-yl)-phenyl]-amine]"
7,346 to 348,"COc1ccc(-c2nnc3c4ccccc4c(Nc4ccc(NS(=O)(=O)c5cn(C)cn5)cc4)nn23)cc1 [Compound 2, 1-Methyl-1H-imidazole-4-sulfonic acid {4-[3-(4-methoxy-phenyl)-[1,2,4]triazolo[3,4-a]phthalazin-6-ylamino]-phenyl}-amide]"
8,289 to 293,"COc1ccc(-c2nnc3c4ccccc4c(Nc4ccc(-c5nnn(C)n5)cc4)nn23)cc1 [Compound T6, [3-(4-Methoxy-phenyl)-[1,2,4]triazolo[3,4-a]phthalazin-6-yl]-[4-(2-methyl-2H-tetrazol-5-yl)-phenyl]-amine]"
9,314,"COc1ccc(-c2nnc3c4ccccc4c(Nc4ccc(C#N)cc4)nn23)cc1 [Compound T2, 4-[3-(4-Methoxyphenyl)-[1,2,4]triazolo[3,4-a]phthalazin-6-ylamino]-benzonitrile]"
10,323 to 329,"COc1ccc(-c2nnc3c4ccccc4c(Nc4cccc(NS(=O)(=O)c5ccc(N6CCOCC6)nc5)c4)nn23)cc1 [Compound 16, 6-Morpholin-4-yl-pyridine-3-sulfonic acid {3-[3-(4-methoxy-phenyl)-[1,2,4]triazolo[3,4-a]phthalazin-6-ylamino]-phenyl}-amide]"
11,283 to 285,"COc1ccc(Cc2nnc3c4ccccc4c(Nc4ccc(S(=O)(=O)N5CCCCC5)cc4)nn23)cc1 [Compound 35, [3-(4-Methoxy-benzyl)-[1,2,4]triazolo[3,4-a]phthalazin-6-yl]-[4-(piperidine-1-sulfonyl)-phenyl]-amine]"
12,290,"COc1ccc(-c2nnc3c4ccccc4c(Nc4ccc(NS(=O)(=O)c5cccc(OC)c5)cc4)nn23)cc1 [Compound 5, 3-Methoxy-N-{4-[3-(4-methoxy-phenyl)-[1,2,4]triazolo[3,4-a]phthalazin-6-ylamino]-phenyl}-benzenesulfonamide]"
13,262 to 264,"COc1ccc(Cc2nnc3c4ccccc4c(Nc4cccc(-c5nnn(C)n5)c4)nn23)cc1 [Compound T9, [3-(4-Methoxy-benzyl)-[1,2,4]triazolo[3,4-a]phthalazin-6-yl]-[3-(2-methyl-2H-tetrazol-5-yl)-phenyl]-amine]"
14,352 to 354,"COc1ccc(-c2nnc3c4ccccc4c(Nc4cccc(NS(=O)(=O)c5ccc(C(C)=O)cc5)c4)nn23)cc1 [Compound 12, 4-Acetyl-N-{3-[3-(4-methoxy-phenyl)-[1,2,4]triazolo[3,4-a]phthalazin-6-ylamino]-phenyl}-benzenesulfonamide]"
15,342 to 349,"COc1ccc(-c2nnc3c4ccccc4c(Nc4cccc(S(N)(=O)=O)c4)nn23)cc1 [Compound 23, 3-[3-(4-Methoxy-phenyl)-[1,2,4]triazolo[3,4-a]phthalazin-6-ylamino]-benzenesulfonamide]"
16,184 to 187,"COc1ccc(-c2nnc3c4ccccc4c(Nc4cccc(NS(=O)(=O)c5cn(C)cn5)c4)nn23)cc1 [Compound 11, 1-Methyl-1H-imidazole-4-sulfonic acid {3-[3-(4-methoxy-phenyl)-[1,2,4]triazolo[3,4-a]phthalazin-6-ylamino]-phenyl}-amide]"
17,328 to 331,"COc1ccc(-c2nnc3c4ccccc4c(Nc4cccc(NS(=O)(=O)c5ccc(NC(C)=O)cc5)c4)nn23)cc1 [Compound 18, N-(4-{3-[3-(4-Methoxy-phenyl)-[1,2,4]triazolo[3,4-a]phthalazin-6-ylamino]-phenylsulfamoyl}-phenyl)-acetamide]"
18,220 to 227,"COc1ccc(-c2nnc3c4ccccc4c(Nc4cccc(S(=O)(=O)N(C)C)c4)nn23)cc1 [Compound 24, 3-[3-(4-Methoxy-phenyl)-[1,2,4]triazolo[3,4-a]phthalazin-6-ylamino]-N,N-dimethyl-benzenesulfonamide]"
